Test results: ChEMBL document CHEMBL1250443, “Microarray-based method for monitoring yeast overexpression strains reveals small-molecule targets in TOR pathway” (Nat Chem Biol, 2006)

What was measured:
[1] = Inhibition of TOR signaling in wild-type Saccharomyces cerevisiae transformed with overexpression plasmids assessed as increased YOL157C gene expression by microarray
[2] = Inhibition of TOR signaling in wild-type Saccharomyces cerevisiae transformed with overexpression plasmids assessed as decreased PUT4 gene expression by microarray
[3] = Inhibition of TOR signaling in wild-type Saccharomyces cerevisiae transformed with overexpression plasmids assessed as increased YFR044C gene expression by microarray
[4] = Inhibition of TOR signaling in wild-type Saccharomyces cerevisiae transformed with overexpression plasmids assessed as decreased ATX2 gene expression by microarray
[5] = Inhibition of TOR signaling in wild-type Saccharomyces cerevisiae transformed with overexpression plasmids assessed as decreased EFR3 gene expression by microarray
[6] = Inhibition of TOR signaling in wild-type Saccharomyces cerevisiae transformed with overexpression plasmids assessed as increased YLR346C gene expression by microarray
[7] = Inhibition of TOR signaling in wild-type Saccharomyces cerevisiae transformed with overexpression plasmids assessed as increased APN2 gene expression by microarray
[8] = Inhibition of TOR signaling in wild-type Saccharomyces cerevisiae transformed with overexpression plasmids assessed as increased SSE1 gene expression by microarray
[9] = Inhibition of TOR signaling in wild-type Saccharomyces cerevisiae transformed with overexpression plasmids assessed as decreased YFL054C gene expression by microarray
[10] = Inhibition of TOR signaling in wild-type Saccharomyces cerevisiae transformed with overexpression plasmids assessed as increased CIT1 gene expression by microarray
[11] = Inhibition of TOR signaling in wild-type Saccharomyces cerevisiae transformed with overexpression plasmids assessed as decreased APL4 gene expression by microarray
[12] = Inhibition of TOR signaling in wild-type Saccharomyces cerevisiae transformed with overexpression plasmids assessed as decreased HES1 gene expression by microarray
[13] = Inhibition of TOR signaling in wild-type Saccharomyces cerevisiae transformed with overexpression plasmids assessed as increased YEL070W gene expression by microarray
[14] = Inhibition of TOR signaling in wild-type Saccharomyces cerevisiae transformed with overexpression plasmids assessed as decreased SET4 gene expression by microarray
[15] = Inhibition of TOR signaling in wild-type Saccharomyces cerevisiae transformed with overexpression plasmids assessed as increased YOR220W gene expression by microarray
[16] = Inhibition of TOR signaling in wild-type Saccharomyces cerevisiae transformed with overexpression plasmids assessed as decreased YPL264C gene expression by microarray
[17] = Inhibition of TOR signaling in wild-type Saccharomyces cerevisiae transformed with overexpression plasmids assessed as increased UTP8 gene expression by microarray
[18] = Inhibition of TOR signaling in wild-type Saccharomyces cerevisiae transformed with overexpression plasmids assessed as decreased PTC4 gene expression by microarray
[19] = Inhibition of TOR signaling in wild-type Saccharomyces cerevisiae transformed with overexpression plasmids assessed as decreased YCL036W gene expression by microarray
[20] = Inhibition of TOR signaling in wild-type Saccharomyces cerevisiae transformed with overexpression plasmids assessed as decreased HPA2 gene expression by microarray
[21] = Inhibition of TOR signaling in wild-type Saccharomyces cerevisiae transformed with overexpression plasmids assessed as increased NAM7 gene expression by microarray
[22] = Inhibition of TOR signaling in wild-type Saccharomyces cerevisiae transformed with overexpression plasmids assessed as decreased YPL260W gene expression by microarray
[23] = Inhibition of TOR signaling in wild-type Saccharomyces cerevisiae transformed with overexpression plasmids assessed as decreased ERO1 gene expression by microarray
[24] = Inhibition of TOR signaling in wild-type Saccharomyces cerevisiae transformed with overexpression plasmids assessed as increased SEC14 gene expression by microarray
Saccharomyces cerevisiae [25] = experiment: Decrease of YDR222W gene expression in wild-type Saccharomyces cerevisiae transformed with overexpression plasmids by microarray; type: functional
[26] = Inhibition of TOR signaling in wild-type Saccharomyces cerevisiae transformed with overexpression plasmids assessed as increased ZDS2 gene expression by microarray
[27] = Inhibition of TOR signaling in wild-type Saccharomyces cerevisiae transformed with overexpression plasmids assessed as decreased AZR1 gene expression by microarray
[28] = Inhibition of TOR signaling in wild-type Saccharomyces cerevisiae transformed with overexpression plasmids assessed as decreased HSD1 gene expression by microarray
[29] = Inhibition of TOR signaling in wild-type Saccharomyces cerevisiae transformed with overexpression plasmids assessed as decreased VTI1 gene expression by microarray
[30] = Inhibition of TOR signaling in wild-type Saccharomyces cerevisiae transformed with overexpression plasmids assessed as increased NOP7 gene expression by microarray
[31] = Inhibition of TOR signaling in wild-type Saccharomyces cerevisiae transformed with overexpression plasmids assessed as decreased SHO1 gene expression by microarray
[32] = Inhibition of TOR signaling in wild-type Saccharomyces cerevisiae transformed with overexpression plasmids assessed as increased YOR042W gene expression by microarray
[33] = Inhibition of TOR signaling in wild-type Saccharomyces cerevisiae transformed with overexpression plasmids assessed as decreased SUE1 gene expression by microarray
[34] = Inhibition of TOR signaling in wild-type Saccharomyces cerevisiae transformed with overexpression plasmids assessed as decreased GIP3 gene expression by microarray
[35] = Inhibition of TOR signaling in wild-type Saccharomyces cerevisiae transformed with overexpression plasmids assessed as increased YDL063C gene expression by microarray
Saccharomyces cerevisiae [36] = experiment: Decrease of YKR75C gene expression in wild-type Saccharomyces cerevisiae transformed with overexpression plasmids by microarray; type: functional
[37] = Inhibition of TOR signaling in wild-type Saccharomyces cerevisiae transformed with overexpression plasmids assessed as decreased HMI1 gene expression by microarray
[38] = Inhibition of TOR signaling in wild-type Saccharomyces cerevisiae transformed with overexpression plasmids assessed as increased PZF1 gene expression by microarray
[39] = Inhibition of TOR signaling in wild-type Saccharomyces cerevisiae transformed with overexpression plasmids assessed as decreased TUL1 gene expression by microarray
Saccharomyces cerevisiae [40] = experiment: Increase of GUF1 gene expression in wild-type Saccharomyces cerevisiae transformed with overexpression plasmids by microarray; type: functional
[41] = Inhibition of TOR signaling in wild-type Saccharomyces cerevisiae transformed with overexpression plasmids assessed as decreased YBR284W gene expression by microarray
[42] = Inhibition of TOR signaling in wild-type Saccharomyces cerevisiae transformed with overexpression plasmids assessed as increased SSH1 gene expression by microarray
[43] = Inhibition of TOR signaling in wild-type Saccharomyces cerevisiae transformed with overexpression plasmids assessed as increased LIN1 gene expression by microarray
[44] = Inhibition of TOR signaling in wild-type Saccharomyces cerevisiae transformed with overexpression plasmids assessed as increased VID22 gene expression by microarray
[45] = Inhibition of TOR signaling in wild-type Saccharomyces cerevisiae transformed with overexpression plasmids assessed as increased FBP1 gene expression by microarray

fold change (FC) [1]: 7.1
fold change (FC) [2]: -3.1
fold change (FC) [3]: 4.7
fold change (FC) [4]: -2
fold change (FC) [5]: -3.1
fold change (FC) [6]: 2.7
fold change (FC) [7]: 2.1
fold change (FC) [8]: 11.4
fold change (FC) [9]: -2.5
fold change (FC) [10]: 2.1
fold change (FC) [11]: -2.7
fold change (FC) [12]: -3.1
fold change (FC) [13]: 3
fold change (FC) [14]: -2.2
fold change (FC) [15]: 3.2
fold change (FC) [16]: -3.2
fold change (FC) [17]: 2.6
fold change (FC) [18]: -4
fold change (FC) [19]: -2.1
fold change (FC) [20]: -2.1
fold change (FC) [21]: 6.4
fold change (FC) [22]: -2
fold change (FC) [23]: -2.3
fold change (FC) [24]: 4.1
fold change (FC) [26]: 13.6
fold change (FC) [27]: -3.1
fold change (FC) [28]: -4.5
fold change (FC) [29]: -2.8
fold change (FC) [30]: 2.4
fold change (FC) [31]: -4.4
fold change (FC) [32]: 2.7
fold change (FC) [33]: -2
fold change (FC) [34]: -2.3
fold change (FC) [35]: 2.5
fold change (FC) [37]: -2.3
fold change (FC) [38]: 2.1
fold change (FC) [39]: -3.7
fold change (FC) [41]: -3.2
fold change (FC) [42]: 2.3
fold change (FC) [43]: 2.5
fold change (FC) [44]: 2.3
fold change (FC) [45]: 2.1
SMILES: CO[C@H]1C[C@@H]2CC[C@@H](C)[C@@](O)(O2)C(=O)C(=O)N2CCCC[C@H]2C(=O)O[C@H]([C@H](C)C[C@@H]2CC[C@@H](O)[C@H](OC)C2)CC(=O)[C@H](C)/C=C(\C)[C@@H](O)[C@@H](OC)C(=O)[C@H](C)C[C@H](C)/C=C/C=C/C=C/1C [SIROLIMUS]
fold change (FC) (Saccharomyces cerevisiae [25]): 5
fold change (FC) (Saccharomyces cerevisiae [36]): -2.5
fold change (FC) (Saccharomyces cerevisiae [40]): -3.1
